In general, EC50 refers to the concentration that produces a half-maximal response.

The target in the test is GST-RIPK1 (recombinant GST-RIPK1 kinase domain (residues 1-327)) (Homo sapiens (Human), UniProt Q13546). Kind of test: RIPK1-ADP-Glo Enzymatic Assay. Format: biochemical. The note with it: 25 nM GST-RIPK1, 300 μM ATP, 3 μM dephosphorylated-MBP, 30 min pre-incubation, 150 min reaction. The essentials: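 GST-RIPK1 kinase domain (1-327, Sf21-expressed), 25 nM final, pre-incubated 30 min with compound (1% DMSO), then reacted 150 min with 300 μM ATP and 3 μM dephosphorylated MBP in HEPES pH 7.3/MgCl2 buffer. ADP measured by ADP-Glo luminescence; EC50 from 10-point 1:3 titrations (top 100000 nM), four-parameter fit.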
On the technique in general: ADP-Glo first removes unused ATP, then detects ADP through luciferase.

Chain of GST-RIPK1 (recombinant GST-RIPK1 kinase domain (residues 1-327)) (Q13546 1-327): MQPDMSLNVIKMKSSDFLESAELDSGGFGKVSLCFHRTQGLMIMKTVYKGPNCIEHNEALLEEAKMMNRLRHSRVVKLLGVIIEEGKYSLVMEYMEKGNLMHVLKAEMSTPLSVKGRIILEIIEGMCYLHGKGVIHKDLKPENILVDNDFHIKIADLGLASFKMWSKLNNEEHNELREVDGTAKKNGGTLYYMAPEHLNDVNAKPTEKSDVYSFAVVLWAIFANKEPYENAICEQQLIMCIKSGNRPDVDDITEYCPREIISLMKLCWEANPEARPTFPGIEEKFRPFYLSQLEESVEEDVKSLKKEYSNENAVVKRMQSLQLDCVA

On to `N#CC12CC(n3nc4n(c3=O)[C@@H](c3cc(F)cc(F)c3)CS4)(C1)C2` [Compound 1-64, (S)-3-(5-(3,5-difluorophenyl)-3-oxo-5,6-dihydrothiazolo[2,3-c][1,2,4]triazol-2(3H)-yl)bicyclo[1.1.1]pentane-1-carbonitrile], for which the EC50 turned out to be 0.395 µM.

As for `N#CC12CC(n3nc4n(c3=O)[C@H](c3cc(F)cc(F)c3)CS4)(C1)C2` [Compound 1-65, (R)-3-(5-(3,5-difluorophenyl)-3-oxo-5,6-dihydrothiazolo[2,3-c][1,2,4]triazol-2(3H)-yl)bicyclo[1.1.1]pentane-1-carbonitrile], the EC50 worked out at 0.0211 µM.

Take `COc1ccc([C@@H]2CCc3nn(C45CC(F)(C4)C5)c(=O)n32)cc1` [Compound 1-66, (S)-2-(3-fluorobicyclo[1.1.1]pentan-1-yl)-5-(4-methoxyphenyl)-2,5,6,7-tetrahydro-3H-pyrrolo[2,1-c][1,2,4]triazol-3-one]: the EC50 was 0.0858 µM.

As for `N#Cc1ccc([C@@H]2CCc3nn(C45CC(F)(C4)C5)c(=O)n32)cc1` [Compound 1-67, (S)-4-(2-(3-fluorobicyclo[1.1.1]pentan-1-yl)-3-oxo-2,5,6,7-tetrahydro-3H-pyrrolo[2,1-c][1,2,4]triazol-5-yl)benzonitrile], the EC50 came to 0.279 µM.

For `Cc1cncc([C@@H]2CCc3nn(C45CC(Cl)(C4)C5)c(=O)n32)n1` [Compound 1-68], the EC50 was 0.0595 µM.

Consider `C[C@@H]1C[C@@H](c2cc(F)cc(F)c2)n2c1nn(C13CC(C#N)(C1)C3)c2=O` [Compound 1-69, 3-((5S,7R)-5-(3,5-difluorophenyl)-7-methyl-3-oxo-6,7-dihydro-3H-pyrrolo[2,1-c][1,2,4]triazol-2(5H)-yl)bicyclo[1.1.1]pentane-1-carbonitrile], for which the EC50 amounted to 0.263 µM.

For the molecule `C[C@H]1C[C@@H](c2cc(F)cc(F)c2)n2c1nn(C13CC(C#N)(C1)C3)c2=O` [Compound 1-70, 3-((5S,7S)-5-(3,5-difluorophenyl)-7-methyl-3-oxo-6,7-dihydro-3H-pyrrolo[2,1-c][1,2,4]triazol-2(5H)-yl)bicyclo[1.1.1]pentane-1-carbonitrile], the EC50 came to 0.0685 µM.

On to `O=c1n(C23CC(Cl)(C2)C3)nc2n1[C@H](c1ccc(F)cn1)CC2` [Compound 1-71, (S)-2-(3-chlorobicyclo[1.1.1]pentan-1-yl)-5-(5-fluoropyridin-2-yl)-2,5,6,7-tetrahydro-3H-pyrrolo[2,1-c][1,2,4]triazol-3-one], for which the EC50 is 0.162 µM.

On to `Cc1c(F)cc([C@@H]2CCc3nn(C45CC(F)(C4)C5)c(=O)n32)cc1Cl` [Compound 1-72, (S)-5-(3-chloro-5-fluoro-4-methylphenyl)-2-(3-fluorobicyclo[1.1.1]pentan-1-yl)-2,5,6,7-tetrahydro-3H-pyrrolo[2,1-c][1,2,4]triazol-3-one], for which the EC50 was found to be 0.0212 µM.

As for `O=c1n(C23CC(F)(C2)C3)nc2n1[C@H](c1cc(F)c(O)c(F)c1)CC2` [Compound 1-73, (S)-5-(3,5-difluoro-4-hydroxyphenyl)-2-(3-fluorobicyclo[1.1.1]pentan-1-yl)-2,5,6,7-tetrahydro-3H-pyrrolo[2,1-c][1,2,4]triazol-3-one], the EC50 turned out to be 0.0282 µM.

On to `Cc1cc(F)c([C@@H]2CCc3nn(C45CC(F)(C4)C5)c(=O)n32)c(F)c1` [Compound 1-74, (S)-5-(2,6-difluoro-4-methylphenyl)-2-(3-fluorobicyclo[1.1.1]pentan-1-yl)-2,5,6,7-tetrahydro-3H-pyrrolo[2,1-c][1,2,4]triazol-3-one], for which the EC50 is 0.0209 µM.

Take `O=c1n(C23CC(F)(C2)C3)nc2n1[C@H](c1ccc(Cl)c(F)c1)CC2` [Compound 1-75, (S)-5-(4-chloro-3-fluorophenyl)-2-(3-fluorobicyclo[1.1.1]pentan-1-yl)-2,5,6,7-tetrahydro-3H-pyrrolo[2,1-c][1,2,4]triazol-3-one]: the EC50 amounted to 0.0171 µM.

`O=c1n(C23CC(F)(C2)C3)nc2n1[C@H](c1cc(F)c(F)c(F)c1)CC2` [Compound 1-76, (S)-2-(3-fluorobicyclo[1.1.1]pentan-1-yl)-5-(3,4,5-trifluorophenyl)-2,5,6,7-tetrahydro-3H-pyrrolo[2,1-c][1,2,4]triazol-3-one]: the EC50 was 0.0275 µM.

Take `O=c1n(C23CC(F)(C2)C3)nc2n1[C@H](c1cc(F)c(Cl)c(F)c1)CC2` [Compound 1-77, (S)-5-(4-chloro-3,5-difluorophenyl)-2-(3-fluorobicyclo[1.1.1]pentan-1-yl)-2,5,6,7-tetrahydro-3H-pyrrolo[2,1-c][1,2,4]triazol-3-one]: the EC50 came out at 0.0167 µM.

On to `O=c1n(C23CC(F)(C2)C3)nc2n1[C@H](c1ccccc1)COC2` [Compound 1-78, (R)-2-(3-fluorobicyclo[1.1.1]pentan-1-yl)-5-phenyl-2,5,6,8-tetrahydro-3H-[1,2,4]triazolo[3,4-c][1,4]oxazin-3-one], for which the EC50 was found to be 0.0939 µM.

Take `N#CC12CC(n3nc4n(c3=O)[C@H](c3cc(F)cc(F)c3)COC4)(C1)C2` [Compound 1-79, (R)-3-(5-(3,5-difluorophenyl)-3-oxo-5,6-dihydro-3H-[1,2,4]triazolo[3,4-c][1,4]oxazin-2(8H)-yl)bicyclo[1.1.1]pentane-1-carbonitrile]: the EC50 is 0.108 µM.

Take `O=c1n(C23CC(F)(C2)C3)nc2n1[C@H](c1ccccc1)CCC2` [Compound 1-80, (S)-2-(3-fluorobicyclo[1.1.1]pentan-1-yl)-5-phenyl-5,6,7,8-tetrahydro-[1,2,4]triazolo[4,3-a]pyridin-3(2H)-one]: the EC50 was 0.0733 µM.

With `N#CC12CC(n3nc4n(c3=O)[C@H](c3cc(F)cc(F)c3)CC4)(C1)C2(F)F` [Compound 3-1, 3-[(5S)-5-(3,5-difluorophenyl)-3-oxo-6,7-dihydro-3H-pyrrolo[2,1-c][1,2,4]triazol-2(5H)-yl]-2,2-difluorobicyclo[1.1.1]pentane-1-carbonitrile], the EC50 is 0.02 µM.

As for `COC(=O)C12CC(n3nc4n(c3=O)[C@H](c3ccccc3)CC4)(C1)C2(F)F` [Compound 3-2, methyl (S)-2,2-difluoro-3-(3-oxo-5-phenyl-6,7-dihydro-3H-pyrrolo[2,1-c][1,2,4]triazol-2(5H)-yl)bicyclo[1.1.1]pentane-1-carboxylate], the EC50 came out at 0.143 µM.

Turning to `N#CC12CC(n3nc4n(c3=O)[C@H](c3ccccc3)CC4)(C1)C2(F)F` [Compound 3-3, 2,2-difluoro-3-[(5S)-3-oxo-5-phenyl-6,7-dihydro-3H-pyrrolo[2,1-c][1,2,4]triazol-2(5H)-yl]bicyclo[1.1.1]pentane-1-carbonitrile], the EC50 was found to be 0.045 µM.

As to `Cc1ccc([C@@H]2CCc3nn(C45CC(C#N)(C4)C5)c(=O)n32)cc1` [Compound 4-7, (S)-3-(3-oxo-5-(p-tolyl)-6,7-dihydro-3H-pyrrolo[2,1-c][1,2,4]triazol-2(5H)-yl)bicyclo[1.1.1]pentane-1-carbonitrile], the EC50 is 0.0495 µM.

Regarding `N#CC12CC(n3nc4n(c3=O)[C@H](c3cnccn3)CC4)(C1)C2` [Compound 4-8, (S)-3-(3-oxo-5-(pyrazin-2-yl)-6,7-dihydro-3H-pyrrolo[2,1-c][1,2,4]triazol-2(5H)-yl)bicyclo[1.1.1]pentane-1-carbonitrile], the EC50 was found to be 0.165 µM.

Regarding `Cc1cc(F)cc([C@@H]2CCc3nn(C45CC(F)(C4)C5)c(=O)n32)c1` [Compound 4-9, (S)-5-(3-fluoro-5-methylphenyl)-2-(3-fluorobicyclo[1.1.1]pentan-1-yl)-2,5,6,7-tetrahydro-3H-pyrrolo[2,1-c][1,2,4]triazol-3-one], the EC50 worked out at 0.017 µM.

Regarding `O=c1n(C23CC(F)(C2)C3)nc2n1[C@H](c1ccc(C(F)F)cc1)CC2` [Compound 4-10, (S)-5-(4-(difluoromethyl)phenyl)-2-(3-fluorobicyclo[1.1.1]pentan-1-yl)-2,5,6,7-tetrahydro-3H-pyrrolo[2,1-c][1,2,4]triazol-3-one], the EC50 amounted to 0.0629 µM.

`O=c1n(C23CC(F)(C2)C3)nc2n1[C@H](c1ccc(C3CC3)cc1)CC2` [Compound 4-11, (S)-5-(4-cyclopropylphenyl)-2-(3-fluorobicyclo[1.1.1]pentan-1-yl)-2,5,6,7-tetrahydro-3H-pyrrolo[2,1-c][1,2,4]triazol-3-one]: the EC50 amounted to 0.108 µM.

Take `O=c1n(C23CC(F)(C2)C3)nc2n1[C@H](c1cnccn1)CC2` [Compound 4-12, (S)-2-(3-fluorobicyclo[1.1.1]pentan-1-yl)-5-(pyrazin-2-yl)-2,5,6,7-tetrahydro-3H-pyrrolo[2,1-c][1,2,4]triazol-3-one]: the EC50 amounted to 0.084 µM.

For `Cc1cncc([C@@H]2CCc3nn(C45CC(F)(C4)C5)c(=O)n32)n1` [Compound 4-13, (S)-2-(3-fluorobicyclo[1.1.1]pentan-1-yl)-5-(6-methylpyrazin-2-yl)-2,5,6,7-tetrahydro-3H-pyrrolo[2,1-c][1,2,4]triazol-3-one], the EC50 was found to be 0.0798 µM.

Turning to `Cc1cnc([C@@H]2CCc3nn(C45CC(F)(C4)C5)c(=O)n32)cn1` [Compound 4-14, (S)-2-(3-fluorobicyclo[1.1.1]pentan-1-yl)-5-(5-methylpyrazin-2-yl)-2,5,6,7-tetrahydro-3H-pyrrolo[2,1-c][1,2,4]triazol-3-one], the EC50 was found to be 0.198 µM.

As to `Cc1ccccc1[C@@H]1CCc2nn(C34CC(F)(C3)C4)c(=O)n21` [Compound 4-15, (S)-2-(3-fluorobicyclo[1.1.1]pentan-1-yl)-5-(o-tolyl)-2,5,6,7-tetrahydro-3H-pyrrolo[2,1-c][1,2,4]triazol-3-one], the EC50 came to 0.341 µM.

As to `O=c1n(C23CC(F)(C2)C3)nc2n1[C@H](c1cnc(C(F)(F)F)cn1)CC2` [Compound 4-16, (S)-2-(3-fluorobicyclo[1.1.1]pentan-1-yl)-5-(5-(trifluoromethyl)pyrazin-2-yl)-2,5,6,7-tetrahydro-3H-pyrrolo[2,1-c][1,2,4]triazol-3-one], the EC50 amounted to 0.496 µM.

Values taken from US20240025912A1 (Merck Sharp & Dohme LLC, priority 2022, published 2024).
